# Tested on: hypertonic saline-induced IOP increase in rabbits
# Assay: Intraocular pressure (IOP) lowering activity in hypertonic saline-induced IOP increase in rabbits
# Assay type: in vivo, New Zealand White rabbits
# Parameters: unit not given here
# Details: topical, versus vehicle and versus basal IOP before hypertonic saline injection
# Experimental: Intraocular Pressure (IOP) Lowering Activity in Hypertonic Saline-Induced IOP Increase in Rabbits
# The Intraocular pressure (TOP) lowering activity of compound (Ia) (Example 1) was assessed in an animal model of elevated IOP.
# Adults male New Zealand White rabbits weighting 1.8-2.0 Kg were used in the experiments.
# IOP was measured using a Tono-Pen XL prior to hypertonic saline injection (basal) and at 30, 60, 120 and 240 min thereafter. Vehicle (5% cremophor-EL; 0.3% DMSO; 0.2 mg/ml bac in PBS pH 6.0,) or compound (Ia) dissolved in the vehicle at different concentrations (0.1%, 0.3% and 1%) was instilled as eye drops immediately after hypertonic saline injection. Eyes were randomly assigned to different treatment groups. Vehicle or compound (Ia) was directly instilled into the conjunctiva pocket at the desired doses. One drop of 0.4% oxybuprocaine hydrochloride (Novesine, Sandoz) was instilled in each eye immediately before each set of pressure measurements.
# Results are reported in Table in which the ocular hypotensive activity of compound (Ia) at different is expressed as IOP change (at 60 and 120 minutes following topical administration) versus vehicle and versus IOP at basal before hypertonic saline injection.
compound,measurement,setting,value
"CCCC(=O)OCCCCO[N+](=O)[O-] [Compound (Ia), 4-Nitrooxybutan-1-Ol Butyrate]",IOP change,"0.1% eye drops, 60 min after administration",−10.3 ± 0.3
same,IOP change,"0.1% eye drops, 120 min after administration",−5 ± 1.8
same,IOP change,"0.3% eye drops, 60 min after administration",−16.5 ± 3.8
same,IOP change,"0.3% eye drops, 120 min after administration",−9 ± 2.1
same,IOP change,"1% eye drops, 60 min after administration",−21.1 ± 4.5
same,IOP change,"1% eye drops, 120 min after administration",−15.1 ± 2.3

# From patent US9895335B2, “Ophthalmic compositions containing a nitric oxide donor” (NICOX SCIENCE IRELAND, priority 2013, dated 2018)
